{"source": "paper PMC12388617", "about": "“Development and Biochemical Characterization of Quorum Quenching Enzyme from Deep-Sea Bacillus velezensis DH82” (Microorganisms, 2025)", "key": {"AiiADH82": {"tested_on": "T1, AiiADH82", "T1 construct": "gene aiiA; full length, pET28a NdeI/XhoI, His6 at N- and C-terminus, E. coli BL21, Ni-NTA; primer-encoded start MTVKKLYF", "experiment": "UPLC-QTOF MS of residual AHL (m/z […]), Lineweaver-Burk", "assay_type": "biochemical, Bacillus velezensis", "details": "pH 6.5, 28 °C, 45 min; substrate 200-350 µM (far below the printed Km)"}, "YtnPDH82": {"molecular_target": "T2, YtnPDH82 (Bacillus velezensis, UniProt A7Z7T2)", "T2 construct": "gene RBAM_027000; full length, pET28a EcoRI/XhoI, His6 at N- and C-terminus, E. coli BL21, Ni-NTA; primer-encoded start METLNIGNF", "T2 sequence (A7Z7T2 entry or part of it)": "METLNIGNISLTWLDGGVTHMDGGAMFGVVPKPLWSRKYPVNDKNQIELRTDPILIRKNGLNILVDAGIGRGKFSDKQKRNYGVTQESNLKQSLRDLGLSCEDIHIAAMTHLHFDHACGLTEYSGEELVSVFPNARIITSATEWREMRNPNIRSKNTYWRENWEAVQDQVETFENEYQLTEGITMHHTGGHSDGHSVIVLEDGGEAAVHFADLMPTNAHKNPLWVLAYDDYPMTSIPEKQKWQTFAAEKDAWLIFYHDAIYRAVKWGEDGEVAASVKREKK", "experiment": "UPLC-QTOF MS of residual AHL (m/z […]), Lineweaver-Burk", "assay_type": "biochemical", "details": "pH 6.5, 28 °C, 45 min; substrate 200-350 µM (far below the printed Km)"}}}
{"smiles": "CCCC(=O)CC(=O)N[C@H]1CCOC1=O", "note": "[3-oxo-C6-HSL]", "values": [{"measurement": "Km", "setting": "AiiADH82", "result": 7.8, "unit": "mM"}, {"measurement": "Km", "setting": "YtnPDH82", "result": 15.3, "unit": "mM"}]}
